Where “and” joins values, the source holds several entries; their conditions need not be identical. Equal entries are not always repeated.
Tested on: 126254-015-R-J1-PDC complex spheroid growth, % test/control
Assay: Anticancer human tumor 126254-015-R-J1-PDC patient-derived soft tissue sarcoma cell line growth inhibition [Asc]
Settings: for viability, T/C: stronger effect = lower value
Procedure, shortened: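 Spheroid model: tumor line + HUVEC + hMSC. Single agents and combinations; top conc. at/near clinical Cmax (10 microM if undetermined), half-log dilutions. DMSO stocks at 800-fold test concentration.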
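Also: spheroids exposed to compound for seven days.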
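For viability, T/C in this document: 100% = DMSO vehicle control wells.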

SMILES: Cn1ncnc1[C@H]1c2n[nH]c(=O)c3cc(F)cc(c23)N[C@@H]1c1ccc(F)cc1 + CCN1C(C(=O)NC23CCC(C(=O)O)(CC2)CC3)C(c2cccc(Cl)c2F)C2(C(=O)Nc3cc(Cl)ccc32)C12CCCCC2
- IC50 (curve of first compound, second compound 0.03 µM): > 100 nM
- IC50 (curve of first compound, second compound 0.0949 µM): > 100 nM
- IC50 (curve of first compound, second compound 0.3 µM): > 100 nM
- IC50 (curve of first compound, second compound 0.949 µM): > 100 nM
- IC50 (curve of first compound, second compound 3 µM): > 100 nM
- viability, T/C (second compound 0.03 µM, first compound 0.000316 µM): 88.6%
- viability, T/C (second compound 0.03 µM, first compound 0.001 µM): 108%
- viability, T/C (second compound 0.03 µM, first compound 0.00316 µM): 88%
- viability, T/C (second compound 0.03 µM, first compound 0.01 µM): 96.5%
- viability, T/C (second compound 0.03 µM, first compound 0.0316 µM): 83.9%
- viability, T/C (second compound 0.03 µM, first compound 0.1 µM): 75.4%
- viability, T/C (second compound 0.0949 µM, first compound 0.000316 µM): 101%
- viability, T/C (second compound 0.0949 µM, first compound 0.001 µM): 102%
- viability, T/C (second compound 0.0949 µM, first compound 0.00316 µM): 88.4%
- viability, T/C (second compound 0.0949 µM, first compound 0.01 µM): 78.2%
- viability, T/C (second compound 0.0949 µM, first compound 0.0316 µM): 84.7%
- viability, T/C (second compound 0.0949 µM, first compound 0.1 µM): 68%
- viability, T/C (second compound 0.3 µM, first compound 0.000316 µM): 97%
- viability, T/C (second compound 0.3 µM, first compound 0.001 µM): 111%
- viability, T/C (second compound 0.3 µM, first compound 0.00316 µM): 104%
- viability, T/C (second compound 0.3 µM, first compound 0.01 µM): 81.7%
- viability, T/C (second compound 0.3 µM, first compound 0.0316 µM): 80.7%
- viability, T/C (second compound 0.3 µM, first compound 0.1 µM): 75.2%
- viability, T/C (second compound 0.949 µM, first compound 0.000316 µM): 95.3%
- viability, T/C (second compound 0.949 µM, first compound 0.001 µM): 90.9%
- viability, T/C (second compound 0.949 µM, first compound 0.00316 µM): 95.6%
- viability, T/C (second compound 0.949 µM, first compound 0.01 µM): 86%
- viability, T/C (second compound 0.949 µM, first compound 0.0316 µM): 95.8%
- viability, T/C (second compound 0.949 µM, first compound 0.1 µM): 90.5%
- viability, T/C (second compound 3 µM, first compound 0.000316 µM): 96.3%
- viability, T/C (second compound 3 µM, first compound 0.001 µM): 103%
- viability, T/C (second compound 3 µM, first compound 0.00316 µM): 89.9%
- viability, T/C (second compound 3 µM, first compound 0.01 µM): 84.8%
- viability, T/C (second compound 3 µM, first compound 0.0316 µM): 82%
- viability, T/C (second compound 3 µM, first compound 0.1 µM): 81.6%

SMILES: CCN1C(C(=O)NC23CCC(C(=O)O)(CC2)CC3)C(c2cccc(Cl)c2F)C2(C(=O)Nc3cc(Cl)ccc32)C12CCCCC2 (configuration not stated) + Cc1c(S(C)(=O)=O)c(-c2cc(F)cc(N3CCN(c4ccc(NS(=O)(=O)c5ccc(NC(CCN6CCC(C(=O)OCCCP(=O)(O)O)CC6)CSc6ccccc6)c(S(=O)(=O)C(F)(F)F)c5)cc4)CC3)c2)c(-c2ccc(Cl)cc2)n1C(C)C
- IC50 (curve of first compound, second compound 0.1 µM): > 3000 nM
- IC50 (curve of first compound, second compound 0.316 µM): > 3000 nM
- IC50 (curve of first compound, second compound 1 µM): > 3000 nM
- IC50 (curve of first compound, second compound 3.16 µM): > 3000 nM
- IC50 (curve of first compound, second compound 10 µM): > 3000 nM
- viability, T/C (second compound 0.1 µM, first compound 0.00949 µM): 90.7%
- viability, T/C (second compound 0.1 µM, first compound 0.03 µM): 85.1%
- viability, T/C (second compound 0.1 µM, first compound 0.0949 µM): 91.7%
- viability, T/C (second compound 0.1 µM, first compound 0.3 µM): 88.6%
- viability, T/C (second compound 0.1 µM, first compound 0.949 µM): 93.9%
- viability, T/C (second compound 0.1 µM, first compound 3 µM): 88.3%
- viability, T/C (second compound 0.316 µM, first compound 0.00949 µM): 83.3%
- viability, T/C (second compound 0.316 µM, first compound 0.03 µM): 82.4%
- viability, T/C (second compound 0.316 µM, first compound 0.0949 µM): 81.9%
- viability, T/C (second compound 0.316 µM, first compound 0.3 µM): 79.7%
- viability, T/C (second compound 0.316 µM, first compound 0.949 µM): 74.9%
- viability, T/C (second compound 0.316 µM, first compound 3 µM): 76.9%
- viability, T/C (second compound 1 µM, first compound 0.00949 µM): 86.1%
- viability, T/C (second compound 1 µM, first compound 0.03 µM): 84.4%
- viability, T/C (second compound 1 µM, first compound 0.0949 µM): 87.1%
- viability, T/C (second compound 1 µM, first compound 0.3 µM): 79.4%
- viability, T/C (second compound 1 µM, first compound 0.949 µM): 82.7%
- viability, T/C (second compound 1 µM, first compound 3 µM): 71.4%
- viability, T/C (second compound 3.16 µM, first compound 0.00949 µM): 76%
- viability, T/C (second compound 3.16 µM, first compound 0.03 µM): 83.8%
- viability, T/C (second compound 3.16 µM, first compound 0.0949 µM): 77.2%
- viability, T/C (second compound 3.16 µM, first compound 0.3 µM): 78.7%
- viability, T/C (second compound 3.16 µM, first compound 0.949 µM): 81.3%
- viability, T/C (second compound 3.16 µM, first compound 3 µM): 70.5%
- viability, T/C (second compound 10 µM, first compound 0.00949 µM): 82.3%
- viability, T/C (second compound 10 µM, first compound 0.03 µM): 86.5%
- viability, T/C (second compound 10 µM, first compound 0.0949 µM): 88.8%
- viability, T/C (second compound 10 µM, first compound 0.3 µM): 82.5%
- viability, T/C (second compound 10 µM, first compound 0.949 µM): 75.5%
- viability, T/C (second compound 10 µM, first compound 3 µM): 72.2%

SMILES: NC1CCC(NC2CC2c2ccccc2)CC1 (configuration not stated)
- viability, T/C (compound 0.000316 µM): 96.7% and 95.9% and 95.3%
- viability, T/C (compound 0.001 µM): 87.1% and 102% and 107%
- viability, T/C (compound 0.00316 µM): 96.5% and 88.6% and 98%
- viability, T/C (compound 0.01 µM): 92.1% and 90.5% and 103%
- viability, T/C (compound 0.0316 µM): 90.3% and 85.1% and 100%
- viability, T/C (compound 0.1 µM): 84.9% and 93% and 96.2%
- IC50 (curve of compound): > 100 nM

— PubChem BioAssay AID1963429 (Molecular Pharmacology Branch, DTP, NCI, 2024)
